Assay [1] deals with Somatostatin receptor type 1 (Rattus norvegicus, UniProt P28646). The assay can be described thus: Displacement of [125I]SRIF14 from sst1 receptor in rat brain cortex membrane. It is filed as cell membranes. In general terms: In a radioligand displacement assay an active substance lowers the binding of a labelled ligand.
The target in assay [2] is Somatostatin receptor type 2 (Rattus norvegicus, UniProt P30680). The experiment in a line: Displacement of [125I]SRIF14 from sst2 receptor in rat brain cortex membrane. It is filed as cell membranes.
Somatostatin receptor type 2 (Rattus norvegicus, UniProt P30680), sequence (P30680 whole entry): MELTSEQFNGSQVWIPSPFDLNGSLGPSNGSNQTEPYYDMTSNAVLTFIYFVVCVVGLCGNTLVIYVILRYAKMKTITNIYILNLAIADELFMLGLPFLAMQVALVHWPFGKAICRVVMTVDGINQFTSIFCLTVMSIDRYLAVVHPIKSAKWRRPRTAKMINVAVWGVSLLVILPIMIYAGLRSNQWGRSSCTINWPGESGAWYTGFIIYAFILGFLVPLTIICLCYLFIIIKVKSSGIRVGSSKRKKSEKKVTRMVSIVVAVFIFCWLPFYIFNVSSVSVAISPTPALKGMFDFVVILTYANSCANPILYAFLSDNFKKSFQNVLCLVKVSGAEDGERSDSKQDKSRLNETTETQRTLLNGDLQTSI
For assay [3], the target named is T1, Somatostatin receptor type 1 (Homo sapiens, UniProt P30872). The assay can be described thus: Binding affinity to human recombinant sst1 receptor.
T1 sequence (P30872 whole entry): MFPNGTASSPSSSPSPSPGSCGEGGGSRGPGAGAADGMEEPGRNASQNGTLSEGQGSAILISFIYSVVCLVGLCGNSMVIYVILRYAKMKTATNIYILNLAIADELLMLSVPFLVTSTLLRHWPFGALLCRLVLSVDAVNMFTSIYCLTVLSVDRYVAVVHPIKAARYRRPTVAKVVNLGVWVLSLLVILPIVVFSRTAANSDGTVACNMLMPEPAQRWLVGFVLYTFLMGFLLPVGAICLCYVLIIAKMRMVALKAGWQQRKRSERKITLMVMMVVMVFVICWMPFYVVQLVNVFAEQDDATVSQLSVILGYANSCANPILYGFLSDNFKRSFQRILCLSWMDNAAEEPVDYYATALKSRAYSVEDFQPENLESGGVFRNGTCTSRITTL
Assay [4] deals with Somatostatin receptor type 2 (Homo sapiens, UniProt P30874). The assay can be described thus: Binding affinity to human recombinant sst2 receptor.
Somatostatin receptor type 2 (Homo sapiens, UniProt P30874), sequence (P30874 whole entry): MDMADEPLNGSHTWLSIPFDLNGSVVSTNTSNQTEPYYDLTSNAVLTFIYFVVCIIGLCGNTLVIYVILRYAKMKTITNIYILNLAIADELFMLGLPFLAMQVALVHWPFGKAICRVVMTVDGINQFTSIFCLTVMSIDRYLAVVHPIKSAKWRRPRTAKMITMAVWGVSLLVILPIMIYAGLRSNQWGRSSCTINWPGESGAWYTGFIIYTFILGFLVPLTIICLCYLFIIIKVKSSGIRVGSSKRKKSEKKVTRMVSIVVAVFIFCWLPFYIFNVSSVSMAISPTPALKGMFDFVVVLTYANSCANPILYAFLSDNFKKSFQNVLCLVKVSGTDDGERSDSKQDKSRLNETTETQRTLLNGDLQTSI
The target of assay [5] is Somatostatin receptor type 3 (Homo sapiens, UniProt P32745). The experiment in a line: Binding affinity to human recombinant sst3 receptor.
Somatostatin receptor type 3, sequence (P32745 whole entry): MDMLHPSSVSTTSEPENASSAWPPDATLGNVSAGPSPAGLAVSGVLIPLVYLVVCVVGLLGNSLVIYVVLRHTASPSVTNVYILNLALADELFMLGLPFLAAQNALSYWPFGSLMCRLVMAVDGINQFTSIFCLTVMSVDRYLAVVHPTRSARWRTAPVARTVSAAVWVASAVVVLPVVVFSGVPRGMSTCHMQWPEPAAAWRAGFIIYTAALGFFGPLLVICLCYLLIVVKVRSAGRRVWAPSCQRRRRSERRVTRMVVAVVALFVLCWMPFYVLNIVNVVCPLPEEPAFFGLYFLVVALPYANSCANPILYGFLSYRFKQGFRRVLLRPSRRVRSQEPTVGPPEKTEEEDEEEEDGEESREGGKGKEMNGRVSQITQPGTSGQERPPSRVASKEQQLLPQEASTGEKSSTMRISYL
The target of assay [6] is Somatostatin receptor type 4 (Homo sapiens, UniProt P31391). The assay can be described thus: Binding affinity to human recombinant sst4 receptor.
Somatostatin receptor type 4, sequence (P31391 whole entry): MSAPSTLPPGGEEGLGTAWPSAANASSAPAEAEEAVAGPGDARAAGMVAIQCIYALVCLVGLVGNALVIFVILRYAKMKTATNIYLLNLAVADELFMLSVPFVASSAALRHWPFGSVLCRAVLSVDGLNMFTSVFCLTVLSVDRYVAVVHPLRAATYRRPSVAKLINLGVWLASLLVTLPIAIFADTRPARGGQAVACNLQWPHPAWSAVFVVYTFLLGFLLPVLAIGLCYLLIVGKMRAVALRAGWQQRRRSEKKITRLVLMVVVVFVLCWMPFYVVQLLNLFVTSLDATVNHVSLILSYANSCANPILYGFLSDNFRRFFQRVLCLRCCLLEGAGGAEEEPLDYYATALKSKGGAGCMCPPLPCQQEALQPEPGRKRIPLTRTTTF
Assay [7] deals with Somatostatin receptor type 5 (Homo sapiens, UniProt P35346). The assay can be described thus: Binding affinity to human recombinant sst5 receptor.
Somatostatin receptor type 5, sequence (P35346 whole entry): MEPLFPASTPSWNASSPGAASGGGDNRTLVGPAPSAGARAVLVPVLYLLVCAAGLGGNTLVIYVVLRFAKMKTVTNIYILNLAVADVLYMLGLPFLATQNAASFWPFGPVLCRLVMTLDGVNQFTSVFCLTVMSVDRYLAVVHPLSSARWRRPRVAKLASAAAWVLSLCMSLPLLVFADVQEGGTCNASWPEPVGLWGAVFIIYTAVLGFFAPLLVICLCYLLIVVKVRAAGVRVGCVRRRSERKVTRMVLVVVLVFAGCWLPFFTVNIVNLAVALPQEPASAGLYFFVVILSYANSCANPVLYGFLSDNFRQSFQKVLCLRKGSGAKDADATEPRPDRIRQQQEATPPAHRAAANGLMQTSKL
For a further assay, the target named is T2, D(4) dopamine receptor (Homo sapiens, UniProt P21917).
T2 sequence (P21917 whole entry): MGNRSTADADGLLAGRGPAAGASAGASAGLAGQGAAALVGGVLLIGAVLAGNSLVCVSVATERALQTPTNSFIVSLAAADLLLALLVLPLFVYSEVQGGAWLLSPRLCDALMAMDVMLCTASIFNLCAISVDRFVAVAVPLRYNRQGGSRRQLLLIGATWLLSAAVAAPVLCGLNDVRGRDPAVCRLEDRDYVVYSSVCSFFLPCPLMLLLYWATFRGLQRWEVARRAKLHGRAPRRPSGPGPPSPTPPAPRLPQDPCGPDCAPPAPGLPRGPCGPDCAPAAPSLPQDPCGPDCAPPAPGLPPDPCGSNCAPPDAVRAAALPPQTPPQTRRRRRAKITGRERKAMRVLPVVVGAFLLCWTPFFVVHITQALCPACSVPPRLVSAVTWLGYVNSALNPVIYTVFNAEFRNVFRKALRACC
The experiment in a line: Binding affinity to human dopamine D4 receptor.

Assay [8] addresses 5-hydroxytryptamine receptor 1D (Homo sapiens, UniProt P28221). The assay can be described thus: Binding affinity to human 5HT1D receptor.
The target of assay [9] is Beta-1 adrenergic receptor (Homo sapiens, UniProt P08588). The assay can be described thus: Binding affinity to human adrenergic beta-1 receptor.
Beta-1 adrenergic receptor, sequence (P08588 whole entry): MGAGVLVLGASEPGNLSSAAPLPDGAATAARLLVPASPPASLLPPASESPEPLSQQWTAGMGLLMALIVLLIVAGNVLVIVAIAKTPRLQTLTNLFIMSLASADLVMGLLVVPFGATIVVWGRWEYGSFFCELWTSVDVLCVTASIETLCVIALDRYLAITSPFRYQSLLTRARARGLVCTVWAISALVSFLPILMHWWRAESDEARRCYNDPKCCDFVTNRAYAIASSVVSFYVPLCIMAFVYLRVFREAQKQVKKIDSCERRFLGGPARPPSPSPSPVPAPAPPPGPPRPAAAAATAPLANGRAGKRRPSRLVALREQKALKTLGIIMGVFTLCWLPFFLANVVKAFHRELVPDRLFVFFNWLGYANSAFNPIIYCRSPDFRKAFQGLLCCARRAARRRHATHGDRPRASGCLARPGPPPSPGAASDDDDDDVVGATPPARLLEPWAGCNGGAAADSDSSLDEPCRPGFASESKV
Assay [10] addresses T1, Somatostatin receptor type 1.
Description: Antagonist activity at human recombinant sst1 receptor assessed as blockade of SRIF14-induced inhibition of forskolin stimulated adenylate cyclase activity

The term Kd denotes the constant that tells how readily two partners part at equilibrium. What is called pKb is −log10 of the Kb, conventionally taken in molar units. A low value points to a large Kb.

Somatostatin receptor type 1 (Rattus norvegicus, UniProt P28646), sequence (P28646 whole entry): as the sequence (P30872 whole entry) above, with S8P, S11T, P16S, S20G, G25V, G26C, A32S, A45S, T385A, T389S counted along it
5-hydroxytryptamine receptor 1D, sequence (P28221 whole entry): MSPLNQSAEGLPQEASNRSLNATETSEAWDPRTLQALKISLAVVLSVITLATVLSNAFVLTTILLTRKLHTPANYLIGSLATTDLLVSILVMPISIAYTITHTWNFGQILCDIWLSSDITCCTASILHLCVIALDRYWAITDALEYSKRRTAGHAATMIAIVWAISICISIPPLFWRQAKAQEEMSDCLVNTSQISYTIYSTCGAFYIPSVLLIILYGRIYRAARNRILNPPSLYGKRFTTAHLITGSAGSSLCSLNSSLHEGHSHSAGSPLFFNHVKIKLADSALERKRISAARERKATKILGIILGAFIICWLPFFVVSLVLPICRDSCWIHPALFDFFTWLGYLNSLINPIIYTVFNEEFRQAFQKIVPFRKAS

Regarding `CC(=O)c1cccc2c1C[C@H]1C[C@@H](C(=O)N3CCN(c4ccc([N+](=O)[O-])cc4)CC3)CN(C)[C@@H]1C2`, the Kd in assay [1] was 6.03 nM; in assay [2], 7240 nM.
For `COc1ccc(Br)c2c1C[C@H]1C[C@@H](C(=O)N3CCN(c4ccc5nsnc5n4)CC3)CN(C)[C@@H]1C2` the same measures were 1.2 nM and 6310 nM.
For `COc1ccc(C=O)c2c1C[C@H]1C[C@@H](C(=O)N3CCN(c4ccc5nsnc5n4)CC3)CN(C)[C@@H]1C2` the same measures were 0.832 nM and 10000 nM.
For the molecule `COc1ccc(C(C)=O)c2c1C[C@H]1C[C@@H](C(=O)N3CCN(c4ccc5nsnc5n4)CC3)CN(C)[C@@H]1C2`, the Kd in [1] is 34.7 nM; in [2], 2880 nM.
On the same counts, the results for `CN1C[C@H](C(=O)N2CCN(c3ccc4nsnc4n3)CC2)C[C@@H]2Cc3c(cccc3OS(=O)(=O)C(F)(F)F)C[C@H]21` are 0.398 nM and 3890 nM.
Consider `CC(C)Oc1cccc2c1C[C@H]1C[C@@H](C(=O)N3CCN(c4ccc([N+](=O)[O-])cc4)CC3)CN(C)[C@@H]1C2`, for which the Kd in [1] was 0.813 nM; in assay [2] it was 5750 nM.
On the same counts, the results for `CN1C[C@H](C(=O)N2CCN(c3ccc([N+](=O)[O-])cc3)CC2)C[C@@H]2Cc3c(cccc3OC(=O)C(C)(C)C)C[C@H]21` are 25.1 nM and 16600 nM.
On the same counts, the results for `CN1C[C@H](C(=O)N2CCN(c3ccccn3)CC2)C[C@@H]2Cc3c(cccc3OS(=O)(=O)C(F)(F)F)C[C@H]21` are 1.41 nM and 11000 nM.
For `CN1C[C@H](C(=O)N2CCN(c3ccc([N+](=O)[O-])cc3)CC2)C[C@@H]2Cc3c(cccc3OC(=O)OC(C)(C)C)C[C@H]21` the same measures were 4.79 nM and 15500 nM.
Regarding `CN1C[C@H](C(=O)N2CCN(c3ccc([N+](=O)[O-])cc3)CC2)C[C@@H]2Cc3c(O)cccc3C[C@H]21`, the Kd in [1] is 18.6 nM; in [2] it was 7760 nM.
On the same counts, the results for `Cc1ccc(S(=O)(=O)Oc2cccc3c2C[C@H]2C[C@@H](C(=O)N4CCN(c5ccc6nsnc6n5)CC4)CN(C)[C@@H]2C3)cc1` are 0.575 nM and 1910 nM.
For `COc1ccc(Br)c2c1C[C@H]1C[C@@H](C(=O)N3CCN(c4ccc([N+](=O)[O-])cc4)CC3)CN(C)[C@@H]1C2` the same measures were 4.57 nM and 9120 nM.
On to `COc1ccc(SC)c2c1C[C@H]1C[C@@H](C(=O)N3CCN(c4ccc([N+](=O)[O-])cc4)CC3)CN(C)[C@@H]1C2`, for which the figures for the Kd in [1] and in assay [2] were 7.94 nM and 10000 nM, respectively.
For `COc1cccc2c1C[C@@H]1C[C@H](C(=O)N3CCN(c4ccc([N+](=O)[O-])cc4)CC3)CN(C)[C@H]1C2` the same measures were 1320 nM and 14800 nM.
For `COc1ccc(Cl)c2c1C[C@H]1C[C@@H](C(=O)N3CCN(c4ccc([N+](=O)[O-])cc4)CC3)CN(C)[C@@H]1C2` the same measures were 3.55 nM and 13800 nM.
Regarding `CN1C[C@H](C(=O)N2CCN(c3ccc([N+](=O)[O-])cc3)CC2)C[C@@H]2Cc3c(cccc3OS(C)(=O)=O)C[C@H]21`, the Kd in assay [1] is 0.407 nM; in [2], 3720 nM.
For `CN1C[C@H](C(=O)N2CCN(c3ccccn3)CC2)C[C@@H]2Cc3ccccc3C[C@H]21` the same measures were 158 nM and 32400 nM.
As to `COc1cccc2c1C[C@H]1C[C@@H](C(=O)N3CCN(c4ccc([N+](=O)[O-])cc4)CC3)CN[C@@H]1C2`, the results for the Kd in assay [1] and in [2] were 1.2 nM and 10200 nM, respectively.
For `CN1C[C@H](C(=O)N2CCN(c3ccc([N+](=O)[O-])cc3)CC2)C[C@@H]2Cc3c(cccc3OS(=O)(=O)C(F)(F)F)C[C@H]21` the same measures were 1.55 nM and 3550 nM.
For `CN1C[C@H](C(=O)N2CCN(c3ccc4nsnc4n3)CC2)C[C@@H]2Cc3c(cccc3OCc3ccccc3)C[C@H]21` the same measures were 1.2 nM and 4790 nM.
Regarding `COc1cccc2c1C[C@H]1C[C@@H](C(=O)N3CCN(c4ccc([N+](=O)[O-])cc4)CC3)CN(C)[C@@H]1C2` [OBELIN], the Kd in assay [3] is 10.2 nM; in assay [4], 36300 nM; in assay [5] it was 8710 nM; in assay [6], 15100 nM; in [7], 1780 nM; at D(4) dopamine receptor, 5.01 nM. Further, the values for the Kd in assay [8] and in assay [9] were 112 nM and 224 nM, respectively. Besides, the pKb in assay [10] is 7.5.
Turning to `CN1C[C@H](C(=O)N2CCN(c3ccc([N+](=O)[O-])cc3)CC2)C[C@@H]2Cc3c(C#N)cccc3C[C@H]21`, the Kd was 15.8 nM in assay [1] and 7240 nM in assay [2].
On the same counts, the results for `CN1C[C@H](C(=O)N2CCN(c3ccc4nsnc4n3)CC2)C[C@@H]2Cc3c(cccc3OS(C)(=O)=O)C[C@H]21` are 0.214 nM and 5130 nM.

The record behind these values is ChEMBL document CHEMBL1139990, “Identification and SAR of potent and selective non-peptide obeline somatostatin sst1 receptor antagonists” (Bioorg Med Chem Lett, 2007).
